Assay results reported in patent publication US9198915B2, “Methods involving aldose reductase inhibitors” (The Board of Regents of The University of Texas System, priority 2007, dated 2015).

Tests used:
[1] = system: TNF-α, NO and PGE2 in aqueous humor; assay: EIU: TNF-α, NO and PGE2 in aqueous humor (ELISA kits); assay type: in vivo, rat; details: 6 and 24 h after EIU-induction
Protocol: (§1) Six to eight-weeks-old male Lewis rats weighing approximately 150-160 g were used in this study (n=6). All animals were kept in the UTMB's Animal Care Center. All the animal studies were conducted in compliance with the ARVO statement for the use of Animals in Ophthalmic and Vision Research. EIU was induced by a subcutaneous injection of Escherichia coli LPS (200 μg) dissolved in phosphate-buffered saline (PBS, pH 7.4). Rats in ART and ETU+ARI groups were injected intraperitoneally with AR inhibitor zopolrestat (25 mg/kg body weight) dissolved in dimethyl-sulfoxide (DMSO) 24 h before and immediately after LPS injection. Rats of control group received carrier (PBS+20% DMSO) injection.
The levels of TNF-α in the AqH (stored at −80° C.) were assessed with commercially available ELISA kit, according to the manufacturer's instructions. The total level of nitrate plus nitrite in the AqH was measured by using a total nitrite colorimetric assay ([…]) kit according to the manufacturer's instructions. PGE2 production was measured by enzyme immunoassay kit following the manufacturer's instructions.

[2] = system: NF-κB; assay: NF-κB-dependent SEAP reporter assay in TNF-α- or LPS-treated SAEC; assay type: cell-based, human
Protocol: SAEC cells (1×10^5 cells/well) were plated in 24-well plates, serum starved in basal medium with AR inhibitor, sorbinil and zopolrestate (20 μM) or carrier for 24 h, and transiently transfected with pNF-κB-secretory alkaline phosphatase (SEAP) construct or control plasmid pTALSEAP DNA (Clontech, Palo Alto, Calif.) using the LipofectAMINE Plus reagent. After 6 hours of transfection medium was replaced with fresh medium and cells were incubated with either TNF-α (2 nM) or LPS (1 μg/mL) or carrier for 48 h. The cell culture medium was then harvested and analyzed for SEAP activity, essentially as described by the manufacturer (Clontech, Palo Alto, Calif.), using a 96-well chemiluminescence plate reader.

[3] = system: NF-κB; assay: NF-κB-dependent SEAP reporter assay in RW-treated SAEC; assay type: cell-based, human
Protocol: The SAEC (1×10^5 cells/well) were plated in 24-well plates, serum-starved in SABM for 24 hours with or without AR inhibitors, sorbinil and zopolrestat (20 μM), and transiently transfected with pNF-κB-secretory alkaline phosphatase (SEAP) construct or control plasmid pTAL-SEAP DNA (Clontech, Palo Alto, Calif.) using the LipofectAMINE Plus reagent. After 6 hours of transfection, medium was replaced with fresh medium and cells were treated with RW (50 μg/mL) for 48 hours. The cell culture medium was harvested, centrifuged and supernatant was analyzed for SEAP activity, essentially as described by the manufacturer (Clontech, Palo Alto, Calif.), using a 96-well chemiluminescence plate reader.

[4] = system: SAEC; assay: RW-induced ROS generation in SAEC (DHE); assay type: cell-based, human; details: SAEC preincubated with AR inhibitor, RW 150 μg/mL
Protocol: Dihydroethidium (DHE, Molecular Probes) staining for superoxide was carried out as described previously. Briefly, Approximately 1×10^5 cells were seeded on chambered slides and starved in serum-free SABM with or without AR inhibitor for 24 h. The cells were treated with RW for 16 h. SAEC were rinsed with cold PBS and incubated in PBS containing HEt (2.5 mmol/L) at 37° C. for 15 minutes. Cells were rinsed in PBS and mounted with Vectashield Hard Set™ mounting medium with DAPI (Vector Laboratories Inc., Burlingame, Calif.). The image of ethidium staining was measured with a Nikon epifluorescence microscope with a 585 nm long-pass filter.

[5] = system: NF-κB and AP-1; assay: RW-induced NF-κB and AP-1 activation in SAEC (EMSA); assay type: cell-based, human
Protocol: The SAEC were pretreated with or without AR inhibitors for 24 h in starving medium, followed by treatment with Ragweed pollens (RW) (50 μg/ml) for 2 h at 37° C. The nuclear extracts were prepared as described. Briefly, SAEC were harvested and washed with cold PBS and suspended in 0.1 ml of hypotonic lysis buffer containing protease inhibitors for 10 min. The cells were then lysed with 5 μl of 10% Nonidet P-40. The homogenate was centrifuged (6000 rpm; 1 min.), and supernatant containing the cytoplasmic extracts was stored frozen at −80° C. The nuclear pellet was resuspended in 50 μl ice-cold nuclear extraction buffer. After 30 min of intermittent mixing, the extract was centrifuged (12000 rpm; 15 min.), and supernatants containing nuclear extracts were secured. The protein content was measured by the Bradford method. If they were not used immediately, they were stored at −80° C. The Consensus oligonucleotides for NF-κB and AP-1 transcription factors were 5′-end labeled using T4 polynucleotide kinase. EMSA was performed as described. The specificity of the assay was examined by competition with an excess of unlabeled oligonucleotide and supershift assays with antibodies to p65.

[6] = system: COX-2, iNOS, Bcl-XL, Bax, cyclin D1, E2F2; assay: RW-induced inflammatory, apoptosis and cell cycle proteins in SAEC (Western blot); assay type: cell-based, human; details: RW 50 μg/ml, 24 h
Excerpt: Fourty micrograms of cytoplasmic protein extracts, prepared as described earlier were resolved on 10% SDS-PAGE. After electrophoresis, the proteins were electro transferred to a nitrocellulose membrane, blocked with 5% nonfat milk in TBST, and probed with antibodies against COX-2, NOS2, Bcl-xL, Bax, cyclin D1, E2F2 (1:1,000 dilution) for 2 hr. The blot was then washed, exposed to HRP-conjugated secondary antibodies (1:5,000 dilution) for 1 hr, and the antigen-antibody complex was detected by enhanced chemiluminescence (Amersham Pharmacia Biotech, Piscataway, N.J., USA).

[7] = system: Lewis rats; assay: Endotoxin-induced uveitis (EIU): infiltrating cells and total protein in aqueous humor, histopathology; assay type: in vivo, rat; details: zopolrestat alone, no LPS
Protocol: as §1
The rats were euthanized after 3, 6, and 24 h after LPS injection and the aqueous humor (AqH) was collected immediately from eye by an anterior chamber puncture using a 30-gauge needle under the surgical microscope. For cell counting, the AqH samples were suspended in an equal amount of Trypan-blue solution, and the cells were counted using a Hemocytometer under a light microscope (Olympus Optical Ltd). The total protein concentration in the AqH samples was measured using a Biorad protein assay kit (Biorad, CA, USA). The AqH samples were stored in ice water until testing, cell counts and total protein concentrations were measured on the day of sample collection. […]

O=C(O)Cc1nn(Cc2nc3cc(C(F)(F)F)ccc3s2)c(=O)c2ccccc12 [zopolrestat]
reduction of TNF-α concentration in AqH [1]: > 60% | inhibition at 20 µM ([2]; Homo sapiens, SAEC, AR inhibitor 20 μM, TNF-α 2 nM or LPS 1 μg/mL, 48 h, read-out: inhibition of TNF-α- and LPS-induced NF-κB-dependent SEAP activation): > 60% | basal NF-κB-SEAP activity, compound alone ([2]; no TNF-α or LPS): did not affect | inhibition at 20 µM ([3]; Homo sapiens, SAEC, AR inhibitor 20 μM, RW 50 μg/mL 48 hours, read-out: inhibition of RW-induced NF-κB-dependent SEAP activation): > 60% | NF-κB-SEAP activity, compound alone ([3]; no RW): did not affect | RW-induced increase in cellular ROS levels [4]: prevented these changes | prevention of RW-induced NF-κB activation and nuclear translocation ([5]; RW 50 μg/ml): > 80% | basal NF-κB activity, compound alone ([5]; no RW): did not affect | RW-induced increase of COX-2 and iNOS protein expression [6]: significantly prevented the increase | prevention of RW-induced increase in expression of cyclin D1 and E2F2 [6]: > 90% | infiltration of cells, H&E sections, compound alone [7]: No significant infiltration of cells
